# pIC50: −log10 of the molar value.
# Tested on: 699152-130-R-J1-PDC complex spheroid growth
# Test: Anticancer human tumor 699152-130-R-J1-PDC patient-derived pancreatic carcinoma cell line growth inhibition [AhR]
# Details: for pIC50: curve of first compound; for viability, T/C: stronger effect = lower value
# Method in brief: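 Complex tumor spheroids co-cultured with HUVEC and human MSC stroma; AhR antagonists tested in combination with standard-of-care and investigational agents. Top concentration at or near clinical Cmax (else 10 microM), half-log dilutions; growth expressed as percent test/control.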
# 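Also: compound exposure lasted 7 days after spheroids had grown for 3 days.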
smiles,measurement,setting,value
NS(=O)(=O)OCC1CC(n2ccc3c(NC4CCc5ccccc54)ncnc32)CC1O (stereo not given) + CC(CO)NC(=O)c1cc(-c2ccc(Cl)cc2)nn(-c2cnn(C)c2)c1=O,pIC50,second compound 0.1 µM,6.08
same,pIC50,second compound 0.316 µM,6.12
same,pIC50,second compound 1 µM,6.17
same,pIC50,second compound 3.16 µM,6.20
same,pIC50,second compound 10 µM,6.22
same,"viability, T/C","second compound 0.1 µM, first compound 0.0316 µM",108%
same,"viability, T/C","second compound 0.1 µM, first compound 0.1 µM",127%
same,"viability, T/C","second compound 0.1 µM, first compound 0.316 µM",120%
same,"viability, T/C","second compound 0.1 µM, first compound 1 µM",36.9%
same,"viability, T/C","second compound 0.1 µM, first compound 3.16 µM",25.2%
same,"viability, T/C","second compound 0.1 µM, first compound 10 µM",29.3%
same,"viability, T/C","second compound 0.316 µM, first compound 0.0316 µM",116%
same,"viability, T/C","second compound 0.316 µM, first compound 0.1 µM",132%
same,"viability, T/C","second compound 0.316 µM, first compound 0.316 µM",97.2%
same,"viability, T/C","second compound 0.316 µM, first compound 1 µM",36.8%
same,"viability, T/C","second compound 0.316 µM, first compound 3.16 µM",27.5%
same,"viability, T/C","second compound 0.316 µM, first compound 10 µM",29.1%
same,"viability, T/C","second compound 1 µM, first compound 0.0316 µM",115%
same,"viability, T/C","second compound 1 µM, first compound 0.1 µM",126%
same,"viability, T/C","second compound 1 µM, first compound 0.316 µM",91.1%
same,"viability, T/C","second compound 1 µM, first compound 1 µM",30.4%
same,"viability, T/C","second compound 1 µM, first compound 3.16 µM",23.1%
same,"viability, T/C","second compound 1 µM, first compound 10 µM",31.4%
same,"viability, T/C","second compound 3.16 µM, first compound 0.0316 µM",114%
same,"viability, T/C","second compound 3.16 µM, first compound 0.1 µM",127%
same,"viability, T/C","second compound 3.16 µM, first compound 0.316 µM",80.2%
same,"viability, T/C","second compound 3.16 µM, first compound 1 µM",31.6%
same,"viability, T/C","second compound 3.16 µM, first compound 3.16 µM",25.5%
same,"viability, T/C","second compound 3.16 µM, first compound 10 µM",30.6%
same,"viability, T/C","second compound 10 µM, first compound 0.0316 µM",115%
same,"viability, T/C","second compound 10 µM, first compound 0.1 µM",104%
same,"viability, T/C","second compound 10 µM, first compound 0.316 µM",69.5%
same,"viability, T/C","second compound 10 µM, first compound 1 µM",34.1%
same,"viability, T/C","second compound 10 µM, first compound 3.16 µM",27.1%
same,"viability, T/C","second compound 10 µM, first compound 10 µM",30.8%
Nc1ncn(C2CC(O)C(CO)S2)c(=O)n1 (stereo not given) + Cc1ccccc1N=Nc1ccc(NC(=O)c2ccnn2C)c(C)c1,pIC50,second compound 0.1 µM,< 6.52
same,pIC50,second compound 0.316 µM,< 6.52
same,pIC50,second compound 1 µM,< 6.52
same,pIC50,second compound 3.16 µM,< 6.52
same,pIC50,second compound 10 µM,< 6.52
same,"viability, T/C","second compound 0.1 µM, first compound 0.000949 µM",99.6%
same,"viability, T/C","second compound 0.1 µM, first compound 0.003 µM",98.9%
same,"viability, T/C","second compound 0.1 µM, first compound 0.00949 µM",99%
same,"viability, T/C","second compound 0.1 µM, first compound 0.03 µM",95.5%
same,"viability, T/C","second compound 0.1 µM, first compound 0.0949 µM",102%
same,"viability, T/C","second compound 0.1 µM, first compound 0.3 µM",102%
same,"viability, T/C","second compound 0.316 µM, first compound 0.000949 µM",101%
same,"viability, T/C","second compound 0.316 µM, first compound 0.003 µM",105%
same,"viability, T/C","second compound 0.316 µM, first compound 0.00949 µM",95.3%
same,"viability, T/C","second compound 0.316 µM, first compound 0.03 µM",105%
same,"viability, T/C","second compound 0.316 µM, first compound 0.0949 µM",103%
same,"viability, T/C","second compound 0.316 µM, first compound 0.3 µM",90.4%
same,"viability, T/C","second compound 1 µM, first compound 0.000949 µM",101%
same,"viability, T/C","second compound 1 µM, first compound 0.003 µM",101%
same,"viability, T/C","second compound 1 µM, first compound 0.00949 µM",103%
same,"viability, T/C","second compound 1 µM, first compound 0.03 µM",107%
same,"viability, T/C","second compound 1 µM, first compound 0.0949 µM",103%
same,"viability, T/C","second compound 1 µM, first compound 0.3 µM",89.8%
same,"viability, T/C","second compound 3.16 µM, first compound 0.000949 µM",90.2%
same,"viability, T/C","second compound 3.16 µM, first compound 0.003 µM",99%
same,"viability, T/C","second compound 3.16 µM, first compound 0.00949 µM",104%
same,"viability, T/C","second compound 3.16 µM, first compound 0.03 µM",101%
same,"viability, T/C","second compound 3.16 µM, first compound 0.0949 µM",100%
same,"viability, T/C","second compound 3.16 µM, first compound 0.3 µM",95.3%
same,"viability, T/C","second compound 10 µM, first compound 0.000949 µM",114%
same,"viability, T/C","second compound 10 µM, first compound 0.003 µM",116%
same,"viability, T/C","second compound 10 µM, first compound 0.00949 µM",122%
same,"viability, T/C","second compound 10 µM, first compound 0.03 µM",111%
same,"viability, T/C","second compound 10 µM, first compound 0.0949 µM",114%
same,"viability, T/C","second compound 10 µM, first compound 0.3 µM",107%
